Data from patent publication US12584098B2, “In-vitro model of the human gut microbiome and uses thereof in the analysis of the impact of xenobiotics” (EUROPEAN MOLECULAR BIOLOGY LABORATORY, priority 2018, dated 2026).
Like-named read-outs stand apart in the source and are kept apart here. Values belong to the molecule of their own block, whether it stands above or below them.

Assays:
[1] = test system: gut bacterial strains (hits of the interaction screen); assay: Depletion-mode assay: supernatant vs total extraction; details: 50 μM drug, 48 h, GMM
Procedure: If the drug is only depleted in the supernatant, the drug is likely a bioaccumulated, whereas if the drug is also depleted in the extraction of the total fraction a biodegradation is likely.
(§1) All liquid chromatography methods are run on a Waters Acquity UPLC H-Class instrument with a PDA detector and a quaternary solvent system. All established methods are 5 minutes long, have a flow rate of 0.5 ml/min and run on a CSH C18 column (Waters, Part number 186005297) in reverse mode. The column is heated to 40° C. and samples are kept at 6° C. All methods use 50% acetonitrile (Biosolve, ULC grade) for washing buffer, and 50% methanol (Biosolve, ULC grade) for purging buffer. As organic mobile phase acetonitrile was used. The assay was optimized using only two buffers besides water as hydrophilic mobile phase: 5 mM formic acid (Biosolve, ULC grade) of pH 3.2 and 5 mM ammonium formate (Ammonium hydroxide, ACS grade, Sigma) with pH adjusted to 8.3 using the formic acid buffer.
Bacteria from second passage culture are inoculated with an OD578 of 0.01 in 1 mL GMM containing 50 μM drug of interest in 2 mL eppendorf tubes and incubated for 48 h while shaking. After finishing growth, the cultures were removed from the anaerobic chamber. […]

[2] = test system: 25 gut bacterial strains; assay: Bacteria-drug interaction screen: drug depletion from supernatant (UV-UPLC); details: 50 μM drug, 48 h anaerobic growth
Procedure: as §1
For all drugs, a fixed concentration of 50 µM was used, which in most cases approximates the concentration of one pill (0.02-3 mmol) diluted in the volume of the gut (approx. 2.5 L). One bacteria-free control per plate and drug, but triplicates for each bacteria-drug interaction was screened. […] Growth was monitored with measurements of the optical density at 578 nm using an Eon Microplate Spectrophotometer (BIOTEK) approximately every 2 h for the first 10 h, then approximately every 6 h. […]

[3] = test system: 25 gut bacterial strains; assay: Growth effect (OD578) in the bacteria-drug interaction screen; format: cell-based, human gut bacteria; details: 50 μM drug, 25 strains
[4] = cited from earlier work
[5] = test system: gut bacterial strains; assay: Testing for anticommensal activity at higher concentrations (validation of side effect-based predictions); format: cell-based
[6] = test system: E. coli IAI1; details: 50 μM drug
[7] = test system: C. saccharolyticum; details: 50 μM drug

- predominant mode of depletion [1]: bioaccumulation
SMILES: CC(C)(O)c1ccccc1CC[C@@H](SCC1(CC(=O)O)CC1)c1cccc(/C=C/c2ccc3ccc(Cl)cc3n2)c1 [montelukast]
- depletion mode: bioaccumulation or biodegradation (in words) ([1]; supernatant vs total extraction): bioaccumulated and then partially degraded by several bacterial strains

SMILES: O=C1[C@H](CC[C@H](O)c2ccc(F)cc2)[C@@H](c2ccc(O)cc2)N1c1ccc(F)cc1 [ezetimibe]
- depletion of drug from the medium by bacterial strains (in words) [2]: interacting only with a few bacterial strains

SMILES: C[C@H](Cn1cnc2c(N)ncnc21)OCP(=O)(O)O [tenofovir]
- depletion of drug from the medium by bacterial strains (in words) [2]: neither being depleted
- effect on bacterial growth in the screen [3]: nor affecting bacterial growth

SMILES: CC[C@@H]([C@H](C)O)n1ncn(-c2ccc(N3CCN(c4ccc(OC[C@@H]5CO[C@@](Cn6cncn6)(c6ccc(F)cc6F)C5)cc4)CC3)cc2)c1=O [posaconazole]
- maximum concentration in the duodenum ([4]; 40 mg (57 μmol) delivered to the stomach in acidic solution): 26.3 ± 10.3 µM
- maximum concentration in the duodenum ([4]; 40 mg (57 μmol) delivered to the stomach in neutral solution): 13.6 ± 5.8 µM

SMILES: CN(C)C(=N)N=C(N)N [Metformin]
- anticommensal activity at concentrations higher than the 20 μM of the screen [5]: verified

SMILES: CNCC[C@H](Oc1cccc2ccccc12)c1cccs1 [duloxetine]
- effect on growth of E. coli IAI1 [6]: inhibiting growth
- effect on growth of C. saccharolyticum [7]: inhibiting growth
